Measured values from ChEMBL document CHEMBL5137099, “Discovery of Novel cccDNA Reducers toward the Cure of Hepatitis B Virus Infection” (J Med Chem, 2022).
Calls of active or inactive are those of the source. The calls are words filed in the database; no cut-off is given here.

What was measured:
[1] = fCmin in HBVcircle mouse model at 100 mg/kg QD; assay type: ADME, organism-based; conditions: in vivo
[2] = Tmax in C3H/J mouse at 100 mg/kg, po by LC-MS/MS analysis; assay type: ADME, organism-based; conditions: in vivo
[3] = Cmax in C3H/J mouse plasma at 300 mg/kg, po by LC-MS/MS analysis; assay type: ADME, organism-based; design: dose 300 mg/kg, route po
[4] = Dose normalized AUC (0 to 24 hrs) in C3H/J mouse at 100 mg/kg, po by LC-MS/MS analysis; assay type: ADME, organism-based; conditions: in vivo
[5] = Toxicity in C3H/J mouse assessed as tolerability at 100 to 300 mg/kg BID for 5 days; assay type: organism-based; conditions: in vivo, 120 h, dose 100-300 mg/kg, time 5 day
[6] = Aqueous solubility of the compound; assay type: physicochemical; conditions: buffer
[7] = Dose normalized AUC (0 to 24 hrs) in C57BL/6 mouse at 5 mg/kg, po by LC-MS/MS analysis; assay type: ADME, organism-based; conditions: in vivo
Hepatitis B virus [8] = experiment: Antiviral activity against HBV infected HBVcircle mouse model assessed as reduction in HBeAg levels in mouse serum at 300 mg/kg, po bid treated for 3 weeks and measured up to 56 days; assay type: functional, organism-based
[9] = Dose normalized Cmax in C3H/J mouse at 300 mg/kg, po by LC-MS/MS analysis; assay type: ADME, organism-based; conditions: in vivo
[10] = Dose normalized Cmax in C3H/J mouse at 20 mg/kg, po by LC-MS/MS analysis; assay type: ADME, organism-based; conditions: in vivo
[11] = fCaverage in HBVcircle mouse model at 100 mg/kg BID; assay type: ADME, organism-based; conditions: in vivo
[12] = Dose normalized AUC (0 to 12 hrs) in C3H/J mouse at 300 mg/kg, po by LC-MS/MS analysis; assay type: ADME, organism-based; conditions: in vivo
[13] = Half life in C3H/J mouse at 20 mg/kg, po by LC-MS/MS analysis; assay type: ADME, organism-based; conditions: in vivo
[14] = fCmin in HBVcircle mouse model at 300 mg/kg BID; assay type: ADME, organism-based; conditions: in vivo
[15] = Cmax in C3H/J mouse plasma at 20 mg/kg, po by LC-MS/MS analysis; assay type: ADME, organism-based; design: dose 20 mg/kg, route po
[16] = Tmax in C3H/J mouse at 300 mg/kg, po by LC-MS/MS analysis; assay type: ADME, organism-based; conditions: in vivo
[17] = AUC (0 to infinity) in C3H/J mouse at 5 mg/kg, po by LC-MS/MS analysis; assay type: ADME, organism-based; design: time infinity, dose 5 mg/kg, route po; conditions: in vivo
Hepatitis B virus [18] = experiment: Antiviral activity against HBV infected in human primary hepatocyte cells assessed as reduction in HBV cccDNA production by measuring inhibition of HBsAg secretion measured after 48 hrs by ELISA; assay type: functional, organism-based
[19] = fCmax in HBVcircle mouse model at 100 mg/kg QD; assay type: ADME, organism-based; conditions: in vivo
[20] = Half life in C3H/J mouse at 5 mg/kg, po by LC-MS/MS analysis; assay type: ADME, organism-based; conditions: in vivo
[21] = fCmax in HBVcircle mouse model at 100 mg/kg BID; assay type: ADME, organism-based; conditions: in vivo
[22] = Dose normalized AUC (0 to 24 hrs) in C3H/J mouse at 20 mg/kg, po by LC-MS/MS analysis; assay type: ADME, organism-based; conditions: in vivo
[23] = AUC (0 to infinity) in C3H/J mouse at 20 mg/kg, po by LC-MS/MS analysis; assay type: ADME, organism-based; design: time infinity, dose 20 mg/kg, route po; conditions: in vivo
[24] = fCaverage in HBVcircle mouse model at 100 mg/kg QD; assay type: ADME, organism-based; conditions: in vivo
Hepatitis B virus [25] = experiment: Antiviral activity against HBV infected HBVcircle mouse model assessed as reduction in cccDNA levels in mouse liver at 300 mg/kg, po bid treated for 3 weeks and measured up to 56 days by qPCR analysis; assay type: functional, organism-based
[26] = fCmin in HBVcircle mouse model at 100 mg/kg BID; assay type: ADME, organism-based; conditions: in vivo
[27] = Permeability of the compound by PAMPA analysis; assay type: ADME; conditions: read-out: permeability
[28] = Cmax in C3H/J mouse plasma at 5 mg/kg, po by LC-MS/MS analysis; assay type: ADME, organism-based; design: dose 5 mg/kg, route po
[29] = fCmax in HBVcircle mouse model at 300 mg/kg BID; assay type: ADME, organism-based; conditions: in vivo
[30] = Metabolic stability in mouse hepatocytes assessed as intrinsic clearance; assay type: ADME, cell-based, Hepatocyte; conditions: read-out: CLH
[31] = Dose normalized Cmax in C3H/J mouse at 100 mg/kg, po by LC-MS/MS analysis; assay type: ADME, organism-based; conditions: in vivo
Hepatitis B virus [32] = experiment: Antiviral activity against HBV infected in human HepDES19 cells assessed as reduction in HBV cccDNA production by measuring inhibition of HBeAg secretion incubated for 5 days by ELISA; assay type: functional, organism-based; conditions: HepDES19, 120 h
[33] = Cmax in C3H/J mouse plasma at 100 mg/kg, po by LC-MS/MS analysis; assay type: ADME, organism-based; design: dose 100 mg/kg, route po
Hepatitis B virus [34] = experiment: Antiviral activity against HBV infected in human HepG2 cells assessed as reduction in HBeAg secretion incubated for 5 days by counter screen assay; assay type: functional, organism-based; conditions: HepG2, 120 h
[35] = AUC (0 to 12 hrs) in C3H/J mouse at 300 mg/kg, po by LC-MS/MS analysis; assay type: ADME, organism-based; design: time < 12 hr, dose 300 mg/kg, route po; conditions: in vivo
[36] = Octanol-aqueous buffer distribution coefficient, log D of the compound at pH 7.4 by CAMDIS assay; assay type: physicochemical
[37] = Tmax in C3H/J mouse at 20 mg/kg, po by LC-MS/MS analysis; assay type: ADME, organism-based; conditions: in vivo
[38] = AUC (0 to infinity) in C3H/J mouse at 100 mg/kg, po by LC-MS/MS analysis; assay type: ADME, organism-based; design: time infinity, dose 100 mg/kg, route po; conditions: in vivo
Hepatitis B virus [39] = experiment: Antiviral activity against HBV infected in human HepDES19 cells assessed as reduction in HBV cccDNA production by measuring inhibition of HBeAg secretion at 0.3 to 30 uM by southern blot analysis; assay type: functional, organism-based; conditions: dose 0.3-30 µM
Hepatitis B virus [40] = experiment: Antiviral activity against HBV infected HBVcircle mouse model assessed as reduction in HBsAg levels in mouse serum at 300 mg/kg, po bid treated for 3 weeks and measured up to 56 days; assay type: functional, organism-based
[41] = fCaverage in HBVcircle mouse model at 300 mg/kg BID; assay type: ADME, organism-based; conditions: in vivo
[42] = Half life in C3H/J mouse at 100 mg/kg, po by LC-MS/MS analysis; assay type: ADME, organism-based; conditions: in vivo
[43] = Tmax in C3H/J mouse at 5 mg/kg, po by LC-MS/MS analysis; assay type: ADME, organism-based; conditions: in vivo
[44] = Dose normalized Cmax in C3H/J mouse at 5 mg/kg, po by LC-MS/MS analysis; assay type: ADME, organism-based; conditions: in vivo

- fCmin [1]: 0.23 nM
- Tmax [2]: 0.5 h
- Cmax [3]: 59900 ng/mL
- AUC/dose [4]: 1200 (ng·h/mL)/(mg/kg)
- solubility [6]: > 452 µg/mL
- AUC/dose [7]: 1042 ng·h/mL
- Cmax/dose [9]: 200 ng/mL
- Cmax/dose [10]: 408 ng/mL
- f(Cave) [11]: 351 nM
- AUC/dose [12]: 1510 (ng·h/mL)/(mg/kg)
- half-life [13]: 3.45 h
- fCmin [14]: 62.2 nM
- Cmax [15]: 8160 ng/mL
- Tmax [16]: 2.67 h
- AUC(0-inf) [17]: 857 ng·h/mL
- fCmax [19]: 1151 nM
- half-life [20]: 3.46 h
- fCmax [21]: 1151 nM
- AUC/dose [22]: 591 (ng·h/mL)/(mg/kg)
- AUC(0-inf) [23]: 11800 ng·h/mL
- f(Cave) [24]: 178 nM
- fCmin [26]: 20.7 nM
- Papp [27]: 2.82 ×10⁻⁶ cm/s
- Cmax [28]: 828 ng/mL
- fCmax [29]: 3.452 µM
- CLint scaled [30]: 51.9 mL/min/kg
- Cmax/dose [31]: 322 ng/mL
- IC50 (Hepatitis B virus [32]): 580 nM
- Cmax [33]: 32200 ng/mL
- AUC(0-t) at 12 h [35]: 453000 ng·h/mL
- logD [36]: 1
- Tmax [37]: 0.5 h
- AUC(0-inf) [38]: 120000 ng·h/mL
- f(Cave) [41]: 1053 nM
- half-life [42]: 1.82 h
- Tmax [43]: 0.25 h
- Cmax/dose [44]: 166 ng/mL
SMILES: O=C(O)[C@@H]1CCN(c2ccc3c(=O)c4cccc(Cl)c4oc3c2)C1
- Activity [5]: Non-Toxic
- Activity (Hepatitis B virus [8]): Active
- IC50 (Hepatitis B virus [18]): 1150 nM
- Activity (Hepatitis B virus [25]): Active
- IC50 (Hepatitis B virus [34]): > 50000 nM
- Activity (Hepatitis B virus [39]): Active
- Activity (Hepatitis B virus [40]): Active
